Source: ChEMBL document CHEMBL5512645, “A novel antimicrobial peptide with broad-spectrum and exceptional stability derived from the natural peptide Brevicidine” (Eur J Med Chem, 2024)
≈ marks a conversion by molar mass, not a printed value. Calls of active or inactive are those of the source. The calls are words filed in the database; no cut-off is given here. Bridge positions count the residues as written; N and C are the ends. Square brackets hold non-standard residues; d marks the D form. Peptide text beside a SMILES is read from it. * marks the point of attachment. ξ: configuration not given here. Hexanoyl(4ξ-Me) = CCC(C)CCC(=O)*; dOrn = NCCC[C@@H](N)C(=O)O; Orn = NCCC[C@H](N)C(=O)O

Assays:
[1] = system: Pseudomonas aeruginosa; assay: Antibacterial activity against Pseudomonas aeruginosa ATCC 27853 assessed as reduction in survival bacterial growth in presence of chymotrypsin measured after 8 hrs by absorbance based analysis; assay type: functional, organism-based
[2] = system: Cell membrane; assay: Induction of cytoplasmic membrane depolarization in Staphylococcus aureus ATCC 25923 assessed as increase in fluorescence intensity measured upto 12 min by DiSC3-5 dye based fluorescence method; assay type: cell membranes
[3] = system: Staphylococcus aureus; assay: In vivo antibacterial activity against Staphylococcus aureus ATCC 25923 infected in BALB/c mouse model assessed as reduction in bacterial count in spleen at 10 mg/kg, ip preadministered with compound for 1 hr followed by bacterial infection and measured after 6 hrs […]; assay type: functional, organism-based; details: time 7.0 hrs
[4] = system: Pseudomonas aeruginosa; assay: Antibacterial activity against Pseudomonas aeruginosa ATCC 27853 assessed as fold increase in MIC pretreated with FeCl3 followed by compound addition and measured after 2 hrs by broth microdilution method; assay type: functional
[5] = system: Staphylococcus aureus; assay: Antibiofilm activity against Staphylococcus aureus ATCC 25923 assessed as biofilm eradication at 1/2 to 4 times MIC measured after 24 hrs by crystal violet staining based analysis; assay type: functional, organism-based
[6] = system: Staphylococcus aureus; assay: In vivo antibacterial activity against Staphylococcus aureus ATCC 25923 infected in BALB/c mouse model assessed as reduction in bacterial count in lung at 10 mg/kg, ip preadministered with compound for 1 hr followed by bacterial infection and measured after 6 hrs […]; assay type: functional, organism-based; details: time 7.0 hrs
[7] = system: Staphylococcus aureus; assay: In vivo antibacterial activity against Staphylococcus aureus ATCC 25923 infected in BALB/c mouse model assessed as amelioration of pathological changes in liver at 5 to 10 mg/kg, ip measured after 7 hrs by H and E staining based analysis; assay type: functional, organism-based; details: dose 5-10 mg/kg
[8] = system: Staphylococcus aureus; assay: Antibacterial activity against Staphylococcus aureus ATCC 25923 at sub-MIC measured after 20 days; assay type: functional, organism-based; details: time 20.0 day
[9] = system: Staphylococcus aureus; assay: In vivo antibacterial activity against Staphylococcus aureus ATCC 25923 infected in BALB/c mouse model assessed as reduction in bacterial count in kidney at 10 mg/kg, ip preadministered with compound for 1 hr followed by bacterial infection and measured after 6 hrs […]; assay type: functional, organism-based; details: time 7.0 hrs
[10] = Toxicity in male BALB/c mouse assessed as hemorrhage in kidney at 46.88 mg/kg, ip administered as single dose by H and E staining based analysis; assay type: organism-based; details: in vivo
[11] = Retention time of the compound in mouse serum by RP-HPLC analysis; assay type: ADME, cell-free
[12] = system: Staphylococcus aureus; assay: Antibacterial activity against Staphylococcus aureus ATCC 25923 pretreated with 2.5% mouse serum followed by compound addition and measured after 6 hrs by broth microdilution method (reference value: 8 microM); assay type: functional
[13] = system: Staphylococcus aureus; assay: Bactericidal activity against Staphylococcus aureus ATCC 25923 assessed as assessed as eradication of bacterial cells at 1 to 4 times MIC measured after 0.5 to 1 hr by time killing analysis; assay type: functional, organism-based; details: time 0.5-1 hrs
[14] = system: Staphylococcus aureus; assay: Bactericidal activity against Staphylococcus aureus ATCC 25923 assessed as assessed as eradication of bacterial cells at 1/2 times MIC measured after 6 hrs by time killing analysis; assay type: functional, organism-based
[15] = system: Staphylococcus aureus; assay: In vivo antibacterial activity against Staphylococcus aureus ATCC 25923 infected in BALB/c mouse model assessed as reduction in bacterial count in liver at 10 mg/kg, ip preadministered with compound for 1 hr followed by bacterial infection and measured after 6 hrs […]; assay type: functional, organism-based; details: time 7.0 hrs
[16] = Cytotoxicity against human HK-2 cells measured after 24 hrs MTT assay; assay type: toxicity, cell-based
[17] = system: Staphylococcus aureus; assay: Antibacterial activity against Staphylococcus aureus ATCC 25923 pretreated with Kcl followed by compound addition and measured after 2 hrs by broth microdilution method (reference value: 64 microM); assay type: functional
[18] = system: Staphylococcus aureus; assay: Antibacterial activity against Staphylococcus aureus ATCC 25923 assessed as fold increase in MIC pretreated with 2.5 to 20% mouse serum followed by compound addition and measured after 6 hr by broth microdilution method; assay type: functional
[19] = system: Pseudomonas aeruginosa; assay: Induction of morphological changes in Pseudomonas aeruginosa ATCC 27853 assessed as leakage of cellular content at 2 times MIC measured after 0.5 hrs by SEM based analysis; assay type: functional, organism-based
[20] = system: Staphylococcus aureus; assay: Antibacterial activity against Staphylococcus aureus ATCC 25923 pretreated with Mgcl2 followed by compound addition and measured after 2 hrs by broth microdilution method (reference value: 64 microM); assay type: functional
[21] = system: Pseudomonas aeruginosa; assay: Bactericidal activity against Pseudomonas aeruginosa ATCC 27853 assessed as assessed as eradication of bacterial cells at 1/2 to 1 times MIC measured after 1 hr by time killing analysis relative to control; assay type: functional
[22] = system: Staphylococcus aureus; assay: Induction of morphological changes in Staphylococcus aureus ATCC 25923 assessed as leakage of cellular content at 2 times MIC measured after 0.5 hrs by SEM based analysis; assay type: functional, organism-based
[23] = system: Pseudomonas aeruginosa; assay: Antibacterial activity against Pseudomonas aeruginosa ATCC 27853 assessed as fold increase in MIC pretreated with 2.5 to 20% mouse serum followed by compound addition and measured after 6 hr by broth microdilution method; assay type: functional
[24] = system: Pseudomonas aeruginosa; assay: Induction of morphological changes in Pseudomonas aeruginosa ATCC 27853 assessed as pore formation on bacterial surface at 2 times MIC measured after 0.5 hrs by SEM based analysis; assay type: functional, organism-based
[25] = system: Staphylococcus aureus; assay: Induction of morphological changes in Staphylococcus aureus ATCC 25923 assessed as membrane rupture at 2 times MIC measured after 0.5 hrs by SEM based analysis; assay type: functional, organism-based
[26] = system: Staphylococcus aureus; assay: Antibacterial activity against Staphylococcus aureus ATCC 25923 pretreated with 20% mouse serum followed by compound addition and measured after 6 hrs by broth microdilution method (reference value: 64 microM); assay type: functional
[27] = system: Cell membrane; assay: Induction of cytoplasmic membrane depolarization in Pseudomonas aeruginosa ATCC 27853 assessed as increase in fluorescence intensity at 2 to 4 times MIC measured upto 12 min by DiSC3-5 dye based fluorescence method; assay type: cell membranes
[28] = system: Pseudomonas aeruginosa; assay: Antimicrobial activity against Pseudomonas aeruginosa ATCC 27853 assessed as reduction in microbial growth at 2 times MIC measured for 18 hrs in presence of 64 microg/ml LPS; assay type: functional, organism-based
[29] = system: Pseudomonas aeruginosa; assay: Antibiofilm activity against Pseudomonas aeruginosa ATCC 27853 assessed as biofilm eradication at 1/2 to 4 times MIC measured after 24 hrs by crystal violet staining based analysis; assay type: functional, organism-based
[30] = system: Staphylococcus aureus; assay: Antibacterial activity against Staphylococcus aureus ATCC 25923 pretreated with 20% mouse serum followed by compound addition and measured after 1 hr by broth microdilution method (reference value: 16 microM); assay type: functional, organism-based
[31] = system: Cell membrane; assay: Induction of cytoplasmic membrane depolarization in Pseudomonas aeruginosa ATCC 27853 assessed as increase in fluorescence intensity at 4 times MIC measured upto 12 min by DiSC3-5 dye based fluorescence method; assay type: cell membranes
[32] = system: Staphylococcus aureus; assay: Antibacterial activity against Staphylococcus aureus ATCC 25923 at sub-MIC measured after 6 days; assay type: functional, organism-based; details: time 6.0 day
[33] = system: Staphylococcus aureus; assay: Antibacterial activity against Staphylococcus aureus ATCC 25923 pretreated with Na-cl followed by compound addition and measured after 2 hrs by broth microdilution method (reference value: 16 microM); assay type: functional, organism-based
[34] = system: Staphylococcus aureus; assay: Antibacterial activity against Staphylococcus aureus ATCC 25923 pretreated with 5% mouse serum followed by compound addition and measured after 6 hrs by broth microdilution method (reference value: 16 microM); assay type: functional, organism-based

Compound: CCCCCCCCCC(=O)N[C@H](CCCN)C(=O)N[C@H](Cc1ccc(O)cc1)C(=O)N[C@H](Cc1c[nH]c2ccccc12)C(=O)N[C@H](CCCN)C(=O)N[C@@H](CCCN)C(=O)NCC(=O)N[C@H](CCCN)C(=O)N[C@@H](Cc1c[nH]c2ccccc12)C(=O)N[C@H](C(=O)N[C@H](C(=O)NCC(=O)N[C@@H](CO)C(=O)O)[C@@H](C)CC)[C@@H](C)O
- Activity [1]: Active
- Activity [2]: Dose-Dependent Effect
- Activity [3]: Active
- fold change (FC) [4]: 8
- Activity [5]: Active
- Activity [6]: Active
- Activity [7]: Active
- Activity [8]: Active
- Activity [9]: Active
- Activity [10]: Toxic
- Retention_time [11]: 15.312 min
- MIC [12]: 16 µM (≈ 25.3 µg/mL)
- Activity [13]: Active
- Activity [14]: Active
- Activity [15]: Active
- IC50 at 24 h [16]: 21.1 µM

Compound: CCC(C)CCC(=O)N[C@H](CC(N)=O)C(=O)N[C@H](Cc1ccc(O)cc1)C(=O)N[C@H](Cc1c[nH]c2ccccc12)C(=O)N[C@H](CCCN)C(=O)N[C@@H](CCCN)C(=O)NCC(=O)N[C@H](CCCN)C(=O)N[C@@H](Cc1c[nH]c2ccccc12)C(=O)N[C@@H]1C(=O)N[C@@H]([C@@H](C)CC)C(=O)NCC(=O)N[C@@H](CO)C(=O)O[C@@H]1C (stereo not given in full) ({Hexanoyl(4ξ-Me)}-[dN][dY][dW][dOrn][Orn]G[dOrn]WTIGS; ester 9-C)
- Activity [1]: Active
- MIC [17]: 64 µM (≈ 97.3 µg/mL)
- fold change (FC) [18]: 2
- Activity [19]: Active
- MIC [20]: 64 µM (≈ 97.3 µg/mL)
- Activity [21]: 100%
- Activity [22]: Active
- fold change (FC) [4]: 2
- Activity [8]: Active
- fold change (FC) [23]: 4
- Retention_time [11]: 14.82 min
- Activity [24]: Active
- Activity [25]: Active
- MIC [26]: 128 µM (≈ 195 µg/mL)
- Activity [27]: Active
- Activity [28]: inactive
- IC50 at 24 h [16]: 36.5 µM

Compound: POLYMYXIN B
- Activity [19]: Active
- Activity [29]: Active
- MIC [30]: 16 µM
- Activity [31]: inactive
- Activity [3]: Active
- Activity [6]: Active
- Activity [7]: Active
- Activity [9]: Active
- Activity [24]: Active
- Activity [32]: inactive
- MIC [33]: 16 µM
- MIC [34]: 16 µM
